Reference: US5589568A (priority 1994, dated 1996)
Where two headings read alike, the source gives them in different places. Where a SMILES comes first, the peptide text is derived from it. Where no end group is shown, it is not given here. The star is where a group is joined. Dodecyl = CCCCCCCCCCCC*

How the values were obtained:
Go = molecular target: T1, Go (Bos taurus, UniProt P08239); test: steady state GTPase activity of Go in phospholipid vesicles; assay type: biochemical, bovine
T1 construct: proteins were extracted from bovine cerebral cortical membranes; from tissue; host or cells: bovine brain (cerebral cortical membranes)
Source text: G proteins were reconstituted into phospholipid vesicles composed of dioleoyl-PC/bovine brain PS/1-palmitoyl,2-oleoyl-PE (3:4:3) as reported previously by Higashijima et al., 1988, incorporated herein by reference.

Gs = Gs (Homo sapiens, UniProt P63092); test: steady state GTPase activity of Gs; assay type: biochemical; conditions: read-out: Gs af. (apparent affinity, estimated by EC50 of GTPase activity)
Experimental: Methods for the assay of steady state GTP hydrolysis and GTPγS binding have been described previously by Higashijima, 1987, and Ferguson, 1986, and incorporated herein by reference. Unless noted otherwise, assays of steady state GTP hydrolysis and of the binding and dissociation of guanine nucleotides were carried out in the buffer described previously, but without detergent and with 1.1 mM MgSO4 and the nucleotide specified in the text. When necessary, the concentration of free Mg^2+ was adjusted using EDTA buffers as described previously by Higashijima, 1987, and incorporated herein by reference.
The data set forth in the following tables represent data generated by the inventors employing the steady state GTP hydrolysis, expressed as molar turnover numbers, are described herein under the "Assay" section of the Experimental Procedures in Example 1. The data has been classified according to the criteria outlined below and the effects of each peptide and modified variant on Go, Gi, and Gs have been tabulated. Table III below sets forth data generated for various mastoparan analogues designed by the inventors, in comparison with the various naturally-occurring mastoparans (e.g., MP, MP-A and MP-T). Table IV sets forth similar data generated for various receptor-based peptides designed by the inventors based on a consideration of various G-protein linked receptors.
Apparent affinity (af.) and apparent efficacy (ef.) were estimated by EC50 and maximum turnover number of GTPase activity.

[1] = Table VI, receptor-based peptides

Sequence of Gs (P63092 whole entry): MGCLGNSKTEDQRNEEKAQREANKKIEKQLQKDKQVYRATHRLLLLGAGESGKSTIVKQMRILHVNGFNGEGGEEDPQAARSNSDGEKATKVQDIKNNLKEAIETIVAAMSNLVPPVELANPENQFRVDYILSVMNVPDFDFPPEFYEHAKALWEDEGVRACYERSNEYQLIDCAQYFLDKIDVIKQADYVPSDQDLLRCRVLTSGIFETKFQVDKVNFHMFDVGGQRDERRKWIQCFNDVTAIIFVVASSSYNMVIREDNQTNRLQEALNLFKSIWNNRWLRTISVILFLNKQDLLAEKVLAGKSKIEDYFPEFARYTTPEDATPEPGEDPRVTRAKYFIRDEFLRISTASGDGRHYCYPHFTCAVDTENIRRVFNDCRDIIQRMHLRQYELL
T1 sequence (P08239 2-354 limits assumed): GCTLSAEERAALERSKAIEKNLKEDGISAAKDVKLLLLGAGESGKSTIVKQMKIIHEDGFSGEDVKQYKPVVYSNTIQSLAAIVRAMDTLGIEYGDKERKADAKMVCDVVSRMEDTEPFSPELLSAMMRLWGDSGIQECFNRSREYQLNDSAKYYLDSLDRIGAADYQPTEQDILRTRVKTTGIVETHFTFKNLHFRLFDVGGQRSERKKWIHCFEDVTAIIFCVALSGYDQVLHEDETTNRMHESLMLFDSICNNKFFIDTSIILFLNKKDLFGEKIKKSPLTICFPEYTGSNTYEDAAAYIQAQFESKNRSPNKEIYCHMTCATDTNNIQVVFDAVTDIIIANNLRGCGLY
T1 sequence (P62871 2-340 partner limits assumed): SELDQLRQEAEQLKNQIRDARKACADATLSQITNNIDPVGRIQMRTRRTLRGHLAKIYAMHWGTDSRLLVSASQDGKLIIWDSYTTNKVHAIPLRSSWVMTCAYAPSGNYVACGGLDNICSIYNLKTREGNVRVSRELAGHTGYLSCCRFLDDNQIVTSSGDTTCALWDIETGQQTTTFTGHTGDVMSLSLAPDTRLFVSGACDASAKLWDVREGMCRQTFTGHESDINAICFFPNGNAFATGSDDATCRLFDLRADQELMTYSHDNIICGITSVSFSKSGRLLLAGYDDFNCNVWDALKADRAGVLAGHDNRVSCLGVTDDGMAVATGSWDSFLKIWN
T1 sequence (P63212 2-68 partner limits assumed): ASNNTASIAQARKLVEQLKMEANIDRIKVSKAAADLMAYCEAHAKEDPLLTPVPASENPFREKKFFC

Row | Compound | EC50 (Go) | EC50 (Gs; Table IV) | EC50 (Gs; [1])
1 | ILLKALAALAKALL-NH2 [ER21] | 3 to 10 µM | 3 to 10 µM | –
2 | INLKALAALAKKLA-NH2 [MAS04] | 3 to 10 µM | 3 to 10 µM | –
3 | CPLSYRAKRTPRRAALM-NH2 [ER38] | 3 to 10 µM | – | 30 to 100 µM
4 | INYKALAALAKALC-NH2 [ER17] | 3 to 10 µM | 10 to 30 µM | –
5 | INLKALAALKKKLL-NH2 [MAS11] | 10 to 30 µM | 3 to 10 µM | –
6 | CVFQVAKRQLQKIDKVL-NH2 [ER36] | 10 to 30 µM | – | 30 to 100 µM
7 | INLKALAKLAKKLL-NH2 [MAS14] | 10 to 30 µM | 3 to 10 µM | –
8 | INLAALAALAKALL-NH2 [ER4] | 3 to 10 µM | 3 to 10 µM | –
9 | CLLKALAALAKALL-NH2 [ER30] | 3 to 10 µM | 3 to 10 µM | –
10 | INLRALRALARALL-NH2 [ER24] | < 3 µM | 3 to 10 µM | –
11 | INLQALAALAQALL-NH2 [ER9] | 30 to 100 µM | 10 to 30 µM | –
12 | INLAALAALAKKLL-NH2 [Mas19] | 3 to 10 µM | 3 to 10 µM | –
13 | IQLKALAALAKALL-NH2 [ER12] | 3 to 10 µM | 3 to 10 µM | –
14 | IVYREAKEQIRKIDRVL-NH2 [ER22] | 30 to 100 µM | – | 30 to 100 µM
15 | INFKALAALAKKLL-NH2 [MAS22] | 10 to 30 µM | 3 to 10 µM | –
16 | INLKALKALAKKLL-NH2 [MAS15] | 10 to 30 µM | 3 to 10 µM | –
17 | CC[C@H](C)[C@H](N)C(=O)N[C@@H](CC(N)=O)C(=O)N[C@@H](Cc1ccc(O)cc1)C(=O)N[C@@H](CCCCN)C(=O)N[C@@H](C)C(=O)N[C@@H](CC(C)C)C(=O)N[C@@H](C)C(=O)N[C@@H](C)C(=O)N[C@@H](CC(C)C)C(=O)N[C@@H](C)C(=O)N[C@@H](CCCCN)C(=O)N[C@@H](CCCCN)C(=O)N[C@H](C(=O)N[C@@H](CC(C)C)C(N)=O)[C@@H](C)CC [ER13] | 3 to 10 µM | 3 to 10 µM | –
18 | CC[C@H](C)[C@H](N)C(=O)N[C@@H](CC(N)=O)C(=O)N[C@@H](CC(C)C)C(=O)N[C@@H](CCCCN)C(=O)N[C@@H](C)C(=O)N[C@@H](CC(C)C)C(=O)N[C@@H](C)C(=O)N[C@@H](C)C(=O)N[C@@H](CC(C)C)C(=O)N[C@@H](C)C(=O)N[C@@H](CCCCN)C(=O)N[C@@H](CCCCN)C(=O)N[C@@H](CC(C)C)C(=O)N[C@@H](CC(C)C)C(N)=O [MAS03] | 3 to 10 µM | 10 to 30 µM | –
19 | INLKKLAALAKKLL-NH2 [MAS18] | 10 to 30 µM | 3 to 10 µM | –
20 | CIYRETENRARELAALQGSET-NH2 [ER32] | > 100 µM | – | > 100 µM
21 | INYKALAACAKKIL-NH2 [ER14] | 3 to 10 µM | 3 to 10 µM | –

Row | Compound | EC50 (Go) | EC50 (Gs; Table IV) | EC50 (Gs; [1])
22 | CCCCCCCCCCCCSC[C@H](NC(=O)[C@@H](NC(=O)[C@@H](NC(=O)CNC(=O)[C@H](CC(C)C)NC(=O)[C@@H](NC(=O)[C@H](CCCCN)NC(=O)[C@H](CC(C)C)NC(=O)[C@H](C)NC(=O)[C@H](CCCCN)NC(=O)[C@H](Cc1c[nH]cn1)NC(=O)[C@H](CCC(=O)O)NC(=O)[C@@H](N)CCCNC(=N)N)[C@@H](C)O)[C@@H](C)CC)[C@@H](C)CC)C(N)=O [C12-ER40] (H-REHKALKTLGIIC(Dodecyl)-NH2) | 3 to 10 µM | – | 3 to 10 µM
23 | CVYIVAKRTTKNLEIL-NH2 [ER35] | 10 to 30 µM | – | > 100 µM
24 | INLQALAALAKALL-NH2 [ER8] | 3 to 10 µM | 3 to 10 µM | –
25 | INLKALAALAAALL-NH2 [ER5] | 3 to 10 µM | 3 to 10 µM | –
26 | INLKALAALAKNLL-NH2 [ER20] | 3 to 10 µM | 10 to 30 µM | –
27 | INLKAIAAFAKKLL-NH2 [MP-T, reference compound] | 3 to 10 µM | 10 to 30 µM | –
28 | INLRALAALRRRLL-NH2 [ER28] | < 3 µM | 3 to 10 µM | –
29 | CC[C@H](C)[C@H](N)C(=O)N[C@@H](CC(N)=O)C(=O)N[C@@H](CC(C)C)C(=O)N[C@@H](CCCCN)C(=O)N[C@@H](C)C(=O)N[C@@H](CC(C)C)C(=O)N[C@@H](C)C(=O)N[C@@H](C)C(=O)N[C@@H](CC(C)C)C(=O)N[C@@H](C)C(=O)N[C@@H](CCCCN)C(=O)N[C@@H](CCCCN)C(=O)N[C@@H](CCCCN)C(=O)N[C@@H](CC(C)C)C(N)=O [MAS06] | 30 to 100 µM | 30 to 100 µM | –
30 | INLRALAALAKKLL-NH2 [MAS20] | 3 to 10 µM | 3 to 10 µM | –
31 | IVYREAKEQIRKIL-NH2 [ER23] | 30 to 100 µM | – | 30 to 100 µM
32 | INLKAAAALAKKLL-NH2 [MAS16] | 10 to 30 µM | 3 to 10 µM | –
33 | INLKALAALARALL-NH2 [ER2] | < 3 µM | 3 to 10 µM | –
34 | CISRASKSRIKKDKKIL-NH2 [ER45] | < 3 µM | – | 3 to 10 µM
35 | CISRASKSRIKKDKKEPVAIL-NH2 [ER44] | < 3 µM | – | 30 to 100 µM
36 | INYKALCALAKKIL-NH2 [ER15] | 30 to 100 µM | 10 to 30 µM | –
37 | INWRAWRAWARAWL-NH2 [ER27] | < 3 µM | 3 to 10 µM | –
38 | CVYVVAKRESRGLKIL-NH2 [ER47] | 30 to 100 µM | – | > 100 µM
39 | INLKALAAAAKKLL-NH2 [MAS12] | 10 to 30 µM | 3 to 10 µM | –
40 | CVYREAKEQIRKIDR-NH2 [ER43] | > 100 µM | – | > 100 µM
41 | INLKALAAKAKKLL-NH2 [MAS13] | 30 to 100 µM | 3 to 10 µM | –
42 | INLKALAALARKLL-NH2 [MAS10] | 3 to 10 µM | 3 to 10 µM | –

Row | Compound | EC50 (Go) | EC50 (Gs; Table IV) | EC50 (Gs; [1])
43 | INLKALAALAKRLL-NH2 [MAS08] | 3 to 10 µM | 3 to 10 µM | –
44 | INLKALKALAKALL-NH2 [ER10] | < 3 µM | 3 to 10 µM | –
45 | CVYIVAKRTTKNLEAGVMKEIL-NH2 [ER34] | 30 to 100 µM | – | 30 to 100 µM
46 | INLKALAALAAKLL-NH2 [Mas9] | 3 to 10 µM | 30 to 100 µM | –
47 | INAKALAALAKKLL-NH2 [MAS21] | 10 to 30 µM | 10 to 30 µM | –
48 | INLKALAALAQALL-NH2 [ER3] | 10 to 30 µM | 3 to 10 µM | –
49 | INLRALAALAKALL-NH2 [ER6] | < 3 µM | 3 to 10 µM | –
50 | CC[C@H](C)[C@H](N)C(=O)N[C@@H](CC(N)=O)C(=O)N[C@@H](CC(C)C)C(=O)N[C@@H](CCCCN)C(=O)N[C@@H](C)C(=O)N[C@@H](CC(C)C)C(=O)N[C@@H](C)C(=O)N[C@@H](C)C(=O)N[C@@H](CC(C)C)C(=O)N[C@@H](C)C(=O)N[C@@H](CCCCN)C(=O)N[C@@H](CCCCN)C(=O)N[C@@H](C)C(=O)N[C@@H](CC(C)C)C(N)=O [MAS05, INLKALAALAKKAL] | 10 to 30 µM | 10 to 30 µM | –
51 | INLRALAALARALL-NH2 [ER7] | < 3 µM | 3 to 10 µM | –
52 | CVYREAKEQIRKIL-NH2 [ER19] | > 100 µM | – | > 100 µM
53 | INLKALAALAKALL-NH2 [ER1] | 3 to 10 µM | 3 to 10 µM | –
54 | CVYVVAKRESRGLKSGLKTDIL-NH2 [ER46] | 30 to 100 µM | – | > 100 µM
55 | CIYRETENRARELAALQGSETIL-NH2 [ER33] | > 100 µM | – | > 100 µM
56 | INLQALKALAKALL-NH2 [ER11] | 3 to 10 µM | 3 to 10 µM | –
57 | CVYREAKEQIRKIDRVL-NH2 [ER18] | 30 to 100 µM | – | > 100 µM
58 | IKWKAILDAVKKVL-NH2 [MP-A, reference compound] | 3 to 10 µM | 3 to 10 µM | –
59 | REHKALKTLGIIC-NH2 [ER40] | > 100 µM | – | 30 to 100 µM
60 | INLKAFAALAKKLL-NH2 [MAS23] | 10 to 30 µM | 3 to 10 µM | –
61 | INLKAKAALAKKLL-NH2 [Mas17] | 30 to 100 µM | 3 to 10 µM | –
62 | CNYKALAALAKALL-NH2 [ER16] | 3 to 10 µM | 10 to 30 µM | –
